For six molecules, Activity and Km results are on record in ChEMBL document CHEMBL2074037, “Molecular characterization and tissue distribution of a new organic anion transporter subtype (oatp3) that transports thyroid hormones and taurocholate and comparison with oatp2” (J Biol Chem, 1998).

In series [1] the target is T1, Solute carrier organic anion transporter family member 1A4 (Rattus norvegicus, UniProt O35913).
T1 sequence (O35913 whole entry): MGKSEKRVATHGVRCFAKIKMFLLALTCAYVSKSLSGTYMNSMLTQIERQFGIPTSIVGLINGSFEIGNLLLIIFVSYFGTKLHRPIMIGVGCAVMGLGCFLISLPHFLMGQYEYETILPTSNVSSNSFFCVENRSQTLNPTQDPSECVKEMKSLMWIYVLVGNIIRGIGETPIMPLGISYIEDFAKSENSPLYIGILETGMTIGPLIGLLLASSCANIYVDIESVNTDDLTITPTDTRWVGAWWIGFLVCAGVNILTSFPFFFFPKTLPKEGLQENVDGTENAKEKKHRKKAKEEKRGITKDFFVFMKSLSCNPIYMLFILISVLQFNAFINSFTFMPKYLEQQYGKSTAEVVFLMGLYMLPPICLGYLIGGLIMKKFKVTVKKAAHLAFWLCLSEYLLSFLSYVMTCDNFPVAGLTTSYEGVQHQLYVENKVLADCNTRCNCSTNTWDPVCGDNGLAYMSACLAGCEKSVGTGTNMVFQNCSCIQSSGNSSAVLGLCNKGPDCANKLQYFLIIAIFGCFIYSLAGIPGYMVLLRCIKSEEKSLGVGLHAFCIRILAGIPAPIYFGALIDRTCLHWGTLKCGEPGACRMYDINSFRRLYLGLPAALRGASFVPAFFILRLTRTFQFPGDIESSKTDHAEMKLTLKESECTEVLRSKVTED
Nature of the series: TP_TRANSPORTER: inhibition of Taurocholate uptake (Taurochorate: 1 uM, E217betaG: 200 uM, data not shown) in Xenopus laevis oocytes. The format is functional, cell-based. To be noted: oocyte.

Series [2] has as its target T1, Solute carrier organic anion transporter family member 1A4. Nature of the series: TP_TRANSPORTER: inhibition of Taurocholate uptake (Taurochorate: 1 uM, T4: 200 uM, data not shown) in Xenopus laevis oocytes. The format is functional, cell-based. The conditions noted are these: oocyte.
Series [3] shares this target. Description: TP_TRANSPORTER: inhibition of Taurocholate uptake (Taurochorate: 1 uM, T3: 200 uM, data not shown) in Xenopus laevis oocytes. Type of series: functional, cell-based. The conditions noted are these: oocyte.
Series [4] has the same target. Nature of the series: TP_TRANSPORTER: inhibition of Taurocholate uptake (Taurochorate: 1 uM, BSP: 200 uM, data not shown) in Xenopus laevis oocytes. Type of series: functional, cell-based. To be noted: oocyte.
Substrate in series [5]: N[C@@H](Cc1cc(I)c(Oc2ccc(O)c(I)c2)c(I)c1)C(=O)O
Description: (§1) TP_TRANSPORTER: uptake in Xenopus laevis oocytes. Type of series: functional, cell-based, Oocyte.

Substrate in series [6]: N[C@@H](Cc1cc(I)c(Oc2cc(I)c(O)c(I)c2)c(I)c1)C(=O)O
The series is described as §1. Type of series: functional, cell-based, Oocyte.

Consider `C[C@]12CC[C@@H]3c4ccc(O)cc4CC[C@H]3[C@@H]1CC[C@@H]2O[C@@H]1O[C@H](C(=O)O)[C@@H](O)[C@H](O)[C@H]1O` [ESTRADIOL 17B GLUCURONIDE], for which, in series [1], the Activity result is “inhibitor [+]”.
For the molecule `N[C@@H](Cc1cc(I)c(Oc2cc(I)c(O)c(I)c2)c(I)c1)C(=O)O` [LEVOTHYROXINE], the Activity result in series [2] was “inhibitor [+]”.
`N[C@@H](Cc1cc(I)c(Oc2ccc(O)c(I)c2)c(I)c1)C(=O)O` [LIOTHYRONINE]: the Activity entry in series [3] is “inhibitor [+]”.
Turning to `O=C1OC(c2ccc(O)c(S(=O)(=O)[O-])c2)(c2ccc(O)c(S(=O)(=O)[O-])c2)c2c(Br)c(Br)c(Br)c(Br)c21.[Na+].[Na+]` [SULFOBROMOPHTHALEIN SODIUM], the Activity entry in series [4] was “inhibitor [+]”.

B1: Solute carrier organic anion transporter family member 1A4 (Rattus norvegicus) (protein)
chain: MGKSEKRVATHGVRCFAKIKMFLLALTCAYVSKSLSGTYMNSMLTQIERQFGIPTSIVGLINGSFEIGNLLLIIFVSYFGTKLHRPIMIGVGCAVMGLGCFLISLPHFLMGQYEYETILPTSNVSSNSFFCVENRSQTLNPTQDPSECVKEMKSLMWIYVLVGNIIRGIGETPIMPLGISYIEDFAKSENSPLYIGILETGMTIGPLIGLLLASSCANIYVDIESVNTDDLTITPTDTRWVGAWWIGFLVCAGVNILTSFPFFFFPKTLPKEGLQENVDGTENAKEKKHRKKAKEEKRGITKDFFVFMKSLSCNPIYMLFILISVLQFNAFINSFTFMPKYLEQQYGKSTAEVVFLMGLYMLPPICLGYLIGGLIMKKFKVTVKKAAHLAFWLCLSEYLLSFLSYVMTCDNFPVAGLTTSYEGVQHQLYVENKVLADCNTRCNCSTNTWDPVCGDNGLAYMSACLAGCEKSVGTGTNMVFQNCSCIQSSGNSSAVLGLCNKGPDCANKLQYFLIIAIFGCFIYSLAGIPGYMVLLRCIKSEEKSLGVGLHAFCIRILAGIPAPIYFGALIDRTCLHWGTLKCGEPGACRMYDINSFRRLYLGLPAALRGASFVPAFFILRLTRTFQFPGDIESSKTDHAEMKLTLKESECTEVLRSKVTED
For the molecule B1, the Km in series [5] came out at 5.87 µM; in series [6] it was 6.53 µM.

B2: Solute carrier organic anion transporter family member 1A5 (Rattus norvegicus) (protein)
chain: MGETEKRVATHEVRCFSKIKMFLLALTWAYVSKSLSGIYMNTMLTQIERQFDIPTSIVGFINGSFEIGNLLLIIFVSYFGTKLHRPIMIGVGCVIMGLGCFLMSLPHFLMGRYEYETTISPTSNLSSNSFLCMENRSQTLKPTQDPAECIKEMKSLMWIYVLVGNIIRGIGETPIMPLGISYIEDFAKSENSPLYIGILETGKVFGPIVGLLLGSFCASIYVDTGSVNTDDLTITPTDTRWVGAWWIGFLICAGVNILSSIPFFFFPKTLPKEGLQDDVDGTNNDKEEKHREKAKEENRGITKDFLPFMKSLSCNPIYMLLILTSVLQINAFINMFTFLPKYLEQQYGKSTAEVVLLIGVYNLPPICIGYLLIGFIMKKFKITVKKAAYMAFCLSLFEYLLYFLHFMITCDNFPVAGLTASYEGVHHPLYVENKVLADCNRGCSCSTNSWDPVCGDNGLAYMSACLAGCKKSVGTGTNMVFQNCSCIRSSGNSSAVLGLCKKGPECANKLQYFLIMSVIGSFIYSITAIPGYMVLLRCIKPEEKSLGIGLHAFCTRVFAGIPAPIYFGALIDRTCLHWGTLKCGEPGACRMYNINNFRRIYLVLPAALRGSSYLPALFILILMRKFQFPGEIDSSETELAEMKITVKKSECTDVHGSPQVENDGELKTRL
With B2, the Km in series [5] is 7.33 µM; in series [6], 4.93 µM.
